Calls of active or inactive are those of the source. The rule behind the calls is not given here.
What was measured:
A549 [1] = assay: Cytotoxicity against human A549 cells assessed as cell viability incubated for 48 hrs by MTT assay; format: functional, cell-based; settings: A549, 48 h
NCI-H460 [2] = assay: Cytotoxicity against human NCI-H460 cells assessed as cell viability incubated for 48 hrs by MTT assay; format: functional, cell-based; settings: NCI-H460, 48 h
[3] = Cytotoxicity against human BEAS-2B cells assessed as cell viability incubated for 48 hrs by MTT assay; format: toxicity, cell-based
NCI-H1299 = assay: Cytotoxicity against human NCI-H1299 cells assessed as cell viability incubated for 48 hrs by MTT assay; format: functional, cell-based; settings: NCI-H1299, 48 h
[4] = target: T1, Thioredoxin reductase 1, cytoplasmic (Homo sapiens) (UniProt Q16881); assay: Inhibition of TrxR1 (unknown origin) using DTNB as substrate preincubated for 1.5 hrs by microplate reader analysis
T1 sequence (whole entry): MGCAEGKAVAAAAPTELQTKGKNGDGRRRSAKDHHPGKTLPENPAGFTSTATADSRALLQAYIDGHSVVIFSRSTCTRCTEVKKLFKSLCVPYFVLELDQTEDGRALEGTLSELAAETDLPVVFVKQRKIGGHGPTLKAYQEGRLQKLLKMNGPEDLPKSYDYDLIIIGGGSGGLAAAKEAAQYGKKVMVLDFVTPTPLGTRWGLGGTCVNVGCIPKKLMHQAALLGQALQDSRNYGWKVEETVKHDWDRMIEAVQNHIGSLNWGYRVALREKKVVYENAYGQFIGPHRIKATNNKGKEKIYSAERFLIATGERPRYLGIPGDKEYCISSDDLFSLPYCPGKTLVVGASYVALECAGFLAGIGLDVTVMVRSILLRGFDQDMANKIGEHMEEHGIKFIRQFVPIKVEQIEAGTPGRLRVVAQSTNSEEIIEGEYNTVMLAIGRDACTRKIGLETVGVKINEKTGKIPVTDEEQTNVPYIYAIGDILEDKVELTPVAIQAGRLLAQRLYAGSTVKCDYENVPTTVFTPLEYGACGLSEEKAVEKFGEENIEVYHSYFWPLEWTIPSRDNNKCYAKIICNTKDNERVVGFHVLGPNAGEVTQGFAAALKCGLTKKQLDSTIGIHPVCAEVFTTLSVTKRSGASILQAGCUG

[5] = target: T1, Thioredoxin reductase 1, cytoplasmic (Homo sapiens); assay: Binding affinity to TrxR1 in human A549 cells assessed as thermal stabilization by measuring reduction in thermal denaturation at 200 uM incubated for 90 mins by CETSA analysis; format: cell-based
[6] = target: T1, Thioredoxin reductase 1, cytoplasmic (Homo sapiens); assay: Binding affinity to TrxR1 (unknown origin) at Sec498 residue by pull-down analysis
[7] = target: T2, Thioredoxin reductase 1, cytoplasmic (Homo sapiens, UniProt Q16881); assay: Binding affinity to TrxR1 (unknown origin) assessed as dissociation constant by SPR analysis
T2 sequence (Q16881 whole entry): T1 sequence (whole entry)

[8] = target: T1, Thioredoxin reductase 1, cytoplasmic (Homo sapiens); assay: Binding affinity to TrxR1 (unknown origin) at Cys475 residue
NCI-H460 [9] = assay: Induction of ROS generation in human NCI-H460 cells by DCFH-DA probe based flow cytometry analysis; format: functional, cell-based
A549 [10] = assay: Induction of ROS generation in human A549 cells by DCFH-DA probe based flow cytometry analysis; format: functional, cell-based

| SMILES | IC50 (A549 [1]) | IC50 (NCI-H460 [2]) | other results |
| --- | --- | --- | --- |
| C/C1=C\[C@@H](OC(=O)C2CC2)[C@H]2[C@H](CC3=C[C@H](C1)OC3=O)OC(=O)[C@@H]2CSc1ccc(C(F)(F)F)cc1 | 3.86 µM | > 25 µM | IC50 at 48 h [3]: > 25 µM |
| C/C1=C\[C@@H](OC(=O)NCc2ccc(F)cc2)[C@H]2[C@H](CC3=C[C@H](C1)OC3=O)OC(=O)[C@@H]2CSc1ccc(F)cc1 | 5.05 µM |  | IC50 (NCI-H1299): 5.37 µM |
| C/C1=C\[C@@H](OC(=O)SCC(C)C)[C@H]2[C@H](CC3=C[C@H](C1)OC3=O)OC(=O)[C@@H]2CSc1ccc(F)cc1 | 2.57 µM |  | IC50 (NCI-H1299): 5.37 µM |
| C/C1=C\[C@@H](OC(=O)OC2CC2)[C@H]2[C@H](CC3=C[C@H](C1)OC3=O)OC(=O)[C@@H]2CSc1ccc(F)cc1 | 3.91 µM |  | IC50 (NCI-H1299): 3.04 µM |
| C=C1C(=O)O[C@H]2CC3=C[C@H](C/C(C)=C/[C@@H](OC(=O)NCCC)[C@H]12)OC3=O |  |  | inhibition [4]: Active; Activity [5]: Active; Activity [6]: Active; Kd [7]: 7.89 µM; Activity [8]: Active |
| C/C1=C\[C@@H](OC(=O)C2CC2)[C@H]2[C@H](CC3=C[C@H](C1)OC3=O)OC(=O)[C@@H]2CSC(=S)N(C)C | 0.57 µM | 7.75 µM | IC50 (NCI-H1299): 2.18 µM |
| C/C1=C\[C@@H](OC(=O)C2CC2)[C@H]2[C@H](CC3=C[C@H](C1)OC3=O)OC(=O)[C@@H]2CSc1ccc(F)cc1 | 4.41 µM | > 25 µM | Activity (NCI-H460 [9]): Active; IC50 at 48 h [3]: > 25 µM; Activity (A549 [10]): Active |
| C/C1=C\[C@@H](OC(=O)OCc2cccnc2)[C@H]2[C@H](CC3=C[C@H](C1)OC3=O)OC(=O)[C@@H]2CSc1ccc(F)cc1 | 1.56 µM |  | IC50 (NCI-H1299): 11.5 µM |
| C/C1=C\[C@@H](OC(=O)OCc2ccc(F)cc2)[C@H]2[C@H](CC3=C[C@H](C1)OC3=O)OC(=O)[C@@H]2CSC(=S)N(C)C | 0.47 µM |  | IC50 (NCI-H1299): 2.93 µM |
| C/C1=C\[C@@H](OC(=O)C2CC2)[C@H]2[C@H](CC3=C[C@H](C1)OC3=O)OC(=O)[C@@H]2CSc1ccc(Br)cc1 | 4.6 µM | > 25 µM | IC50 at 48 h [3]: > 25 µM |
| C/C1=C\[C@@H](OC(=O)/C=C/c2ccccc2)[C@H]2[C@H](CC3=C[C@H](C1)OC3=O)OC(=O)[C@@H]2CSc1nc2ccccc2s1 | > 25 µM | > 25 µM |  |
| CCCCCSC(=O)O[C@@H]1/C=C(\C)C[C@H]2C=C(C[C@@H]3OC(=O)[C@H](CSC(=S)N(C)C)[C@H]31)C(=O)O2 | 1.06 µM |  | IC50 (NCI-H1299): 2.64 µM |
| C/C1=C\[C@@H](OC(=O)c2ccccc2)[C@H]2[C@H](CC3=C[C@H](C1)OC3=O)OC(=O)[C@@H]2CSc1nc2ccccc2s1 | > 25 µM | > 25 µM |  |
| CCCCCSC[C@H]1C(=O)O[C@H]2CC3=C[C@H](C/C(C)=C/[C@@H](OC(=O)/C=C/c4ccccc4)[C@@H]21)OC3=O | > 25 µM | > 25 µM |  |
| C/C1=C\[C@@H](OC(=O)c2ccccc2)[C@H]2[C@H](CC3=C[C@H](C1)OC3=O)OC(=O)[C@@H]2CSCCCCCCCCSC[C@H]1C(=O)O[C@H]2CC3=C[C@H](C/C(C)=C/[C@@H](OC(=O)c4ccccc4)[C@@H]21)OC3=O | > 25 µM | > 25 µM |  |
| C/C1=C\[C@@H](OC(=O)C2CC2)[C@H]2[C@H](CC3=C[C@H](C1)OC3=O)OC(=O)[C@@H]2CSC(=S)N1CCOCC1 | 0.83 µM | > 25 µM |  |
| C/C1=C\[C@@H](OC(=O)c2ccccc2)[C@H]2[C@H](CC3=C[C@H](C1)OC3=O)OC(=O)[C@@H]2CSC1CCCCC1 | > 25 µM | > 25 µM |  |
| C/C1=C\[C@@H](OC(=O)c2ccccc2)[C@H]2[C@H](CC3=C[C@H](C1)OC3=O)OC(=O)[C@@H]2CSc1cccc(Br)c1 | 3.66 µM | > 25 µM |  |
| C/C1=C\[C@@H](OC(=O)/C=C/c2ccccc2)[C@H]2[C@H](CC3=C[C@H](C1)OC3=O)OC(=O)[C@@H]2CSc1cccc(F)c1 | 15.6 µM | > 25 µM |  |
| C/C1=C\[C@@H](OC(=O)/C=C/c2ccccc2)[C@H]2[C@H](CC3=C[C@H](C1)OC3=O)OC(=O)[C@@H]2CSc1ccc(F)cc1 | 11.3 µM | > 25 µM |  |
| C/C1=C\[C@@H](O)[C@H]2[C@H](CC3=C[C@H](C1)OC3=O)OC(=O)[C@@H]2CSc1ccc(Cl)cc1 | > 25 µM | > 25 µM |  |
| C/C1=C\[C@@H](OC(=O)C2CC2)[C@H]2[C@H](CC3=C[C@H](C1)OC3=O)OC(=O)[C@@H]2CSCC(C)C | > 25 µM | > 25 µM |  |
| C=C1C(=O)O[C@H]2CC3=C[C@H](C/C(C)=C/[C@@H](O)[C@H]12)OC3=O |  |  | Kd [7]: 42.7 µM |
| C/C1=C\[C@@H](OC(=O)/C=C/c2ccccc2)[C@H]2[C@H](CC3=C[C@H](C1)OC3=O)OC(=O)[C@@H]2CSc1cccc(Br)c1 | 8.61 µM | > 25 µM |  |
| C/C1=C\[C@@H](OC(=O)c2ccccc2)[C@H]2[C@H](CC3=C[C@H](C1)OC3=O)OC(=O)[C@@H]2CSCC(C)C | > 25 µM | > 25 µM |  |
| C/C1=C\[C@@H](OC(=O)c2ccccc2)[C@H]2[C@H](CC3=C[C@H](C1)OC3=O)OC(=O)[C@@H]2CSc1cccc(F)c1 | 6.17 µM | > 25 µM |  |
